Measurements from ChEMBL document CHEMBL5523732, “Structure-Guided Design of Potent Coronavirus Inhibitors with a 2-Pyrrolidone Scaffold: Biochemical, Crystallographic, and Virological Studies” (J Med Chem, 2024).

System: not listed separately
Experiment: Cytotoxicity against cat CRFK cells incubated for 72 hrs by CytoTox 96 analysis
Type: toxicity, cell-based, Felis catus
Conditions: not given

| Structure (SMILES) | CC50 at 72 h [nM] |
| --- | --- |
| CC(C)C[C@H](NC(=O)OCC1CCN(Cc2cccc(C(F)(F)F)c2)C1=O)C(=O)N[C@@H](C[C@@H]1CCNC1=O)C(O)S(=O)(=O)O (stereo partly specified) | > 50000 |
| CC(C)C[C@H](NC(=O)OC[C@@H]1CCC(=O)N1Cc1ccco1)C(=O)N[C@@H](C[C@@H]1CCNC1=O)C(O)S(=O)(=O)O (stereo partly specified) | > 50000 |
| CC(C)C[C@H](NC(=O)OC[C@@H]1CCC(=O)N1Cc1ccccc1)C(=O)N[C@H](C=O)C[C@@H]1CCNC1=O | > 50000 |
| CC(C)C[C@H](NC(=O)OCC1CC(=O)N(CC2CC3CCC2C3)C1)C(=O)N[C@H](C=O)C[C@@H]1CCNC1=O (stereo partly specified) | > 50000 |
| CC(C)C[C@H](NC(=O)OCC1CCN(Cc2ccco2)C1=O)C(=O)N[C@H](C=O)C[C@@H]1CCNC1=O (stereo partly specified) | > 50000 |
| CC(C)C[C@H](NC(=O)OC[C@@H]1CCC(=O)N1CCc1ccccc1)C(=O)N[C@@H](C[C@@H]1CCNC1=O)C(O)S(=O)(=O)O (stereo partly specified) | > 50000 |
| CC(C)C[C@H](NC(=O)OCC1CCN(Cc2ccccc2)C1=O)C(=O)N[C@H](C=O)C[C@@H]1CCNC1=O (stereo partly specified) | > 50000 |
| CC(C)C[C@H](NC(=O)OCC1CC(=O)N(CC2CCCCC2)C1)C(=O)N[C@@H](C[C@@H]1CCNC1=O)C(O)S(=O)(=O)O (stereo partly specified) | > 50000 |
| CC(C)C[C@H](NC(=O)OC[C@@H]1CCC(=O)N1CCC1CCCCC1)C(=O)N[C@@H](C[C@@H]1CCNC1=O)C(O)S(=O)(=O)O (stereo partly specified) | > 50000 |
| CC(C)C[C@H](NC(=O)OCC1CC(=O)N(Cc2cccc(C(F)(F)F)c2)C1)C(=O)N[C@H](C=O)C[C@@H]1CCNC1=O (stereo partly specified) | > 50000 |
| CC(C)C[C@H](NC(=O)OCC1CC(=O)N(Cc2ccco2)C1)C(=O)N[C@@H](C[C@@H]1CCNC1=O)C(O)S(=O)(=O)O (stereo partly specified) | > 50000 |
| CC(C)C[C@H](NC(=O)OCC1CCN(C[C@H]2C[C@H]3C=C[C@@H]2C3)C1=O)C(=O)N[C@H](C=O)C[C@@H]1CCNC1=O (stereo partly specified) | > 50000 |
| CC(C)C[C@H](NC(=O)OCC1CC(=O)N(Cc2ccccc2)C1)C(=O)N[C@H](C=O)C[C@@H]1CCNC1=O (stereo partly specified) | > 50000 |
| CC(C)C[C@H](NC(=O)OCC1CCN(Cc2cccc(C(F)(F)F)c2)C1=O)C(=O)N[C@H](C=O)C[C@@H]1CCNC1=O (stereo partly specified) | > 50000 |
| CC(C)C[C@H](NC(=O)OCC1CCN(C[C@H]2C[C@H]3C=C[C@@H]2C3)C1=O)C(=O)N[C@@H](C[C@@H]1CCNC1=O)C(O)S(=O)(=O)O (stereo partly specified) | > 50000 |
| CC(C)C[C@H](NC(=O)OCC1CCN(CC2CCCCC2)C1=O)C(=O)N[C@@H](C[C@@H]1CCNC1=O)C(O)S(=O)(=O)O (stereo partly specified) | > 50000 |
| CC(C)C[C@H](NC(=O)OC[C@@H]1CCC(=O)N1C[C@H]1C[C@@H]2CC[C@H]1C2)C(=O)N[C@H](C=O)C[C@@H]1CCNC1=O | > 50000 |
| CC(C)C[C@H](NC(=O)OCC1CC(=O)N(CC2CCCCC2)C1)C(=O)N[C@H](C=O)C[C@@H]1CCNC1=O (stereo partly specified) | > 50000 |
| CC(C)C[C@H](NC(=O)OC[C@H]1CCC(=O)N1CC1CCCCC1)C(=O)N[C@H](C=O)C[C@@H]1CCNC1=O | > 50000 |

Target: Replicase polyprotein 1ab (Severe acute respiratory syndrome coronavirus 2, UniProt P0DTD1)
Experiment: Inhibition of full length N-terminal his6-tagged SARS-CoV-2 3CL protease using FAM-SAVLQ as substrate preincubated with compound for 30 mins followed by substrate addition and measured after 30 mins by FRET assay
Conditions: not given

| Structure (SMILES) | IC50 [nM] |
| --- | --- |
| CC(C)C[C@H](NC(=O)OCC1CCN(Cc2cccc(C(F)(F)F)c2)C1=O)C(=O)N[C@@H](C[C@@H]1CCNC1=O)C(O)S(=O)(=O)O (stereo partly specified) | 880 |
| CC(C)C[C@H](NC(=O)OC[C@@H]1CCC(=O)N1Cc1ccco1)C(=O)N[C@@H](C[C@@H]1CCNC1=O)C(O)S(=O)(=O)O (stereo partly specified) | 250 |
| CC(C)C[C@H](NC(=O)OC[C@@H]1CCC(=O)N1Cc1ccccc1)C(=O)N[C@H](C=O)C[C@@H]1CCNC1=O | 430 |
| CC(C)C[C@H](NC(=O)OCC1CC(=O)N(CC2CC3CCC2C3)C1)C(=O)N[C@H](C=O)C[C@@H]1CCNC1=O (stereo partly specified) | 160 |
| CC(C)C[C@H](NC(=O)OCC1CCN(Cc2ccco2)C1=O)C(=O)N[C@H](C=O)C[C@@H]1CCNC1=O (stereo partly specified) | 1960 |
| CC(C)C[C@H](NC(=O)OC[C@@H]1CCC(=O)N1CCc1ccccc1)C(=O)N[C@@H](C[C@@H]1CCNC1=O)C(O)S(=O)(=O)O (stereo partly specified) | 550 |
| CC(C)C[C@H](NC(=O)OCC1CCN(Cc2ccccc2)C1=O)C(=O)N[C@H](C=O)C[C@@H]1CCNC1=O (stereo partly specified) | 790 |
| CC(C)C[C@H](NC(=O)OCC1CC(=O)N(CC2CCCCC2)C1)C(=O)N[C@@H](C[C@@H]1CCNC1=O)C(O)S(=O)(=O)O (stereo partly specified) | 370 |
| CC(C)C[C@H](NC(=O)OC[C@@H]1CCC(=O)N1CCC1CCCCC1)C(=O)N[C@@H](C[C@@H]1CCNC1=O)C(O)S(=O)(=O)O (stereo partly specified) | 580 |
| CC(C)C[C@H](NC(=O)OCC1CC(=O)N(Cc2cccc(C(F)(F)F)c2)C1)C(=O)N[C@H](C=O)C[C@@H]1CCNC1=O (stereo partly specified) | 410 |
| CC(C)C[C@H](NC(=O)OCC1CC(=O)N(Cc2ccco2)C1)C(=O)N[C@@H](C[C@@H]1CCNC1=O)C(O)S(=O)(=O)O (stereo partly specified) | 560 |
| CC(C)C[C@H](NC(=O)OCC1CCN(C[C@H]2C[C@H]3C=C[C@@H]2C3)C1=O)C(=O)N[C@H](C=O)C[C@@H]1CCNC1=O (stereo partly specified) | 460 |
| CC(C)C[C@H](NC(=O)OCC1CC(=O)N(Cc2ccccc2)C1)C(=O)N[C@H](C=O)C[C@@H]1CCNC1=O (stereo partly specified) | 720 |
| CC(C)C[C@H](NC(=O)OCC1CCN(Cc2cccc(C(F)(F)F)c2)C1=O)C(=O)N[C@H](C=O)C[C@@H]1CCNC1=O (stereo partly specified) | 850 |
| CC(C)C[C@H](NC(=O)OCC1CCN(C[C@H]2C[C@H]3C=C[C@@H]2C3)C1=O)C(=O)N[C@@H](C[C@@H]1CCNC1=O)C(O)S(=O)(=O)O (stereo partly specified) | 550 |
| CC(C)C[C@H](NC(=O)OCC1CCN(CC2CCCCC2)C1=O)C(=O)N[C@@H](C[C@@H]1CCNC1=O)C(O)S(=O)(=O)O (stereo partly specified) | 220 |
| CC(C)C[C@H](NC(=O)OC[C@@H]1CCC(=O)N1C[C@H]1C[C@@H]2CC[C@H]1C2)C(=O)N[C@H](C=O)C[C@@H]1CCNC1=O | 500 |
| CC(C)C[C@H](NC(=O)OCC1CC(=O)N(CC2CCCCC2)C1)C(=O)N[C@H](C=O)C[C@@H]1CCNC1=O (stereo partly specified) | 310 |
| CC(C)C[C@H](NC(=O)OC[C@H]1CCC(=O)N1CC1CCCCC1)C(=O)N[C@H](C=O)C[C@@H]1CCNC1=O | 500 |

System: SARS-CoV-2
Experiment: Antiviral activity against SARS CoV-2 Wuhan-Hu-1 infected in HEK293T cells incubated for 24 hrs
Type: functional, organism-based
Conditions: Severe acute respiratory syndrome coronavirus 2, Wuhan-Hu-1, HEK-293T

| Structure (SMILES) | EC50 [nM] |
| --- | --- |
| CC(C)C[C@H](NC(=O)OCC1CC(=O)N(CC2CC3CCC2C3)C1)C(=O)N[C@H](C=O)C[C@@H]1CCNC1=O (stereo partly specified) | 120 |
| CC(C)C[C@H](NC(=O)OCC1CC(=O)N(CC2CCCCC2)C1)C(=O)N[C@@H](C[C@@H]1CCNC1=O)C(O)S(=O)(=O)O (stereo partly specified) | 150 |
| CC(C)C[C@H](NC(=O)OCC1CCN(CC2CCCCC2)C1=O)C(=O)N[C@@H](C[C@@H]1CCNC1=O)C(O)S(=O)(=O)O (stereo partly specified) | 20 |
| CC(C)C[C@H](NC(=O)OCC1CC(=O)N(CC2CCCCC2)C1)C(=O)N[C@H](C=O)C[C@@H]1CCNC1=O (stereo partly specified) | 130 |

System: not listed separately
Experiment: Inhibition of MERS-CoV 3CLpro using SG-QXL520 as substrate preincubated with compound for 30 mins followed by susbtrate addition and measured after 30 mins by FRET assay
Design: species or system Middle East respiratory syndrome-related coronavirus
Conditions: not given

| Structure (SMILES) | IC50 [nM] |
| --- | --- |
| CC(C)C[C@H](NC(=O)OCC1CCN(Cc2cccc(C(F)(F)F)c2)C1=O)C(=O)N[C@@H](C[C@@H]1CCNC1=O)C(O)S(=O)(=O)O (stereo partly specified) | 60 |
| CC(C)C[C@H](NC(=O)OC[C@@H]1CCC(=O)N1Cc1ccco1)C(=O)N[C@@H](C[C@@H]1CCNC1=O)C(O)S(=O)(=O)O (stereo partly specified) | 50 |
| CC(C)C[C@H](NC(=O)OC[C@@H]1CCC(=O)N1Cc1ccccc1)C(=O)N[C@H](C=O)C[C@@H]1CCNC1=O | 130 |
| CC(C)C[C@H](NC(=O)OCC1CC(=O)N(CC2CC3CCC2C3)C1)C(=O)N[C@H](C=O)C[C@@H]1CCNC1=O (stereo partly specified) | 60 |
| CC(C)C[C@H](NC(=O)OCC1CCN(Cc2ccco2)C1=O)C(=O)N[C@H](C=O)C[C@@H]1CCNC1=O (stereo partly specified) | 130 |
| CC(C)C[C@H](NC(=O)OC[C@@H]1CCC(=O)N1CCc1ccccc1)C(=O)N[C@@H](C[C@@H]1CCNC1=O)C(O)S(=O)(=O)O (stereo partly specified) | 160 |
| CC(C)C[C@H](NC(=O)OCC1CCN(Cc2ccccc2)C1=O)C(=O)N[C@H](C=O)C[C@@H]1CCNC1=O (stereo partly specified) | 60 |
| CC(C)C[C@H](NC(=O)OCC1CC(=O)N(CC2CCCCC2)C1)C(=O)N[C@@H](C[C@@H]1CCNC1=O)C(O)S(=O)(=O)O (stereo partly specified) | 50 |
| CC(C)C[C@H](NC(=O)OC[C@@H]1CCC(=O)N1CCC1CCCCC1)C(=O)N[C@@H](C[C@@H]1CCNC1=O)C(O)S(=O)(=O)O (stereo partly specified) | 90 |
| CC(C)C[C@H](NC(=O)OCC1CC(=O)N(Cc2cccc(C(F)(F)F)c2)C1)C(=O)N[C@H](C=O)C[C@@H]1CCNC1=O (stereo partly specified) | 60 |
| CC(C)C[C@H](NC(=O)OCC1CC(=O)N(Cc2ccco2)C1)C(=O)N[C@@H](C[C@@H]1CCNC1=O)C(O)S(=O)(=O)O (stereo partly specified) | 80 |
| CC(C)C[C@H](NC(=O)OCC1CCN(C[C@H]2C[C@H]3C=C[C@@H]2C3)C1=O)C(=O)N[C@H](C=O)C[C@@H]1CCNC1=O (stereo partly specified) | 80 |
| CC(C)C[C@H](NC(=O)OCC1CC(=O)N(Cc2ccccc2)C1)C(=O)N[C@H](C=O)C[C@@H]1CCNC1=O (stereo partly specified) | 80 |
| CC(C)C[C@H](NC(=O)OCC1CCN(Cc2cccc(C(F)(F)F)c2)C1=O)C(=O)N[C@H](C=O)C[C@@H]1CCNC1=O (stereo partly specified) | 70 |
| CC(C)C[C@H](NC(=O)OCC1CCN(C[C@H]2C[C@H]3C=C[C@@H]2C3)C1=O)C(=O)N[C@@H](C[C@@H]1CCNC1=O)C(O)S(=O)(=O)O (stereo partly specified) | 150 |
| CC(C)C[C@H](NC(=O)OCC1CCN(CC2CCCCC2)C1=O)C(=O)N[C@@H](C[C@@H]1CCNC1=O)C(O)S(=O)(=O)O (stereo partly specified) | 170 |
| CC(C)C[C@H](NC(=O)OC[C@@H]1CCC(=O)N1C[C@H]1C[C@@H]2CC[C@H]1C2)C(=O)N[C@H](C=O)C[C@@H]1CCNC1=O | 70 |
| CC(C)C[C@H](NC(=O)OCC1CC(=O)N(CC2CCCCC2)C1)C(=O)N[C@H](C=O)C[C@@H]1CCNC1=O (stereo partly specified) | 50 |
| CC(C)C[C@H](NC(=O)OC[C@H]1CCC(=O)N1CC1CCCCC1)C(=O)N[C@H](C=O)C[C@@H]1CCNC1=O | 70 |
